Results as given in patent publication US8853258B2, “C-linked hydroxamic acid derivatives useful as antibacterial agents” (Pfizer Inc., priority 2009, dated 2014).

Key:
[1] = target: Pseudomonas aeruginosa LpxC enzyme (Pseudomonas aeruginosa (strain ATCC 15692 / DSM 22644 / CIP 104116 / JCM 14847 / LMG 12228 / 1C / PRS 101 / PAO1), UniProt P47205); assay: IC50 Assay, LpxC Enzyme from P. aeruginosa (PA LpxC Enzyme IC50); assay type: biochemical; settings: P. aeruginosa LpxC enzyme; read-out: PA LpxC enzyeme IC50
Method in brief: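 Reaction run 1 h then stopped with 1N HCl. Conversion measured by RapidFire high-throughput mass spectrometry. IC50 derived from percent conversion relative to a no-enzyme control.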

[2] = system: Acinetobacter baumanii/haemolyticus: Multidrug-resistant clinical isolate (AB-3167); assay: MIC determination (CLSI), AB-3167; assay type: cell-based
Method in brief: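 Multidrug-resistant clinical isolate AB-3167 (A. baumannii/haemolyticus) tested for minimum inhibitory concentration following CLSI dilution susceptibility standards M7-A7 and M100-S18.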

[3] = system: Escherichia coli EC-1: VOGEL, mouse virulent; assay: MIC determination (CLSI), EC-1; assay type: cell-based
Method in brief: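 E. coli Vogel, a mouse-virulent strain (EC-1), was tested. MICs were set by dilution susceptibility testing per CLSI standards M7-A7/M100-S18.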

[4] = system: Klebsiella pneumoniae: Ciprofloxacin-resistant isolate, ESBL, clinical isolate (KP-3700); assay: MIC determination (CLSI), KP-3700; assay type: cell-based
Method in brief: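 MIC measured by broth dilution according to CLSI M7-A7 and M100-S18 standards. Test organism was a ciprofloxacin-resistant, ESBL-expressing clinical isolate.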

[5] = system: Pseudomonas aeruginosa UI-18: Wild-type (PA-7); assay: MIC determination (CLSI), PA-7; assay type: cell-based
Method in brief: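 MIC by dilution method per CLSI M7-A7 and M100-S18 guidelines. Strain: wild-type Pseudomonas aeruginosa UI-18.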

[6] = Acinetobacter baumanii/haemolyticus AB-3167
[7] = Pseudomonas aeruginosa UI-18 (PA-7)

Row | Compound | IC50 [1] [nM] | AB-3167 MIC ([2]; Acinetobacter baumanii/haemolyticus multidrug-resistant clinical isolate AB-3167) | EC-1 MIC ([3]; Escherichia coli EC-1 VOGEL, mouse virulent) [mg/L] | KP-3700 MIC [4] | PA-7 MIC ([5]; Pseudomonas aeruginosa UI-18 wild-type PA-7) [mg/L] | AB-3167 MIC [2, 6] | EC-1 MIC ([3]; Escherichia coli EC-1) | PA-7 MIC [5, 7] [mg/L]
1 | CC(CCc1ccc(-c2cnc3ccccc3c2)cc1F)(C(=O)NO)S(C)(=O)=O (stereo not shown) [Example 200] | 0.463 | ≧64 mg/L | 1 | 8 mg/L | 4 |  |  | 
2 | C[C@@](CCc1ccc(-c2cnc3ccccc3c2)cc1)(C(=O)NO)S(C)(=O)=O [Example 201] | 0.24 |  |  | 8 mg/L |  | ≧64 mg/L | 1 mg/L | 2
3 | C[C@@](CCc1ccc(-c2ccc(C#N)cn2)cc1)(C(=O)NO)S(C)(=O)=O [Example 202] | 0.808 |  |  | 16 mg/L |  | ≧64 mg/L | 8 mg/L | 1
4 | CC(CCc1ccc(-c2ccc3c(c2)C(=O)NC3)c(F)c1)(C(=O)NO)S(C)(=O)=O (stereo not shown) [Example 203] | 0.659 |  |  | 32 mg/L |  | ≧64 mg/L | 8 mg/L | 4
5 | C[C@@](CCc1ccc(-c2ccc(N)nc2)cc1)(C(=O)NO)S(C)(=O)=O [Example 204] | 18.2 |  |  | ≧64 mg/L |  | ≧64 mg/L | ≧64 mg/L | 8
6 | CC(=O)Nc1ccc(-c2ccc(CC[C@](C)(C(=O)NO)S(C)(=O)=O)cc2)cc1 [Example 205] | 1.74 |  |  | 32 mg/L |  | ≧64 mg/L | 16 mg/L | 4
7 | CC(CCc1ccc(-c2ccc(N)nc2)c(F)c1)(C(=O)NO)S(C)(=O)=O (stereo not shown) [Example 206] | 23.5 |  |  | ≧64 mg/L |  | ≧64 mg/L | ≧64 mg/L | 16
8 | CC(=O)Nc1ccc(-c2ccc(CCC(C)(C(=O)NO)S(C)(=O)=O)cc2F)cc1 (stereo not shown) [Example 207] | 7.09 |  |  | ≧64 mg/L |  | ≧64 mg/L | 32 mg/L | 16
9 | C[C@@](CCc1ccc(-c2ccc3c(c2)C(=O)NC3)cc1)(C(=O)NO)S(C)(=O)=O [Example 208] | 0.374 |  |  | 16 mg/L |  | ≧64 mg/L | 4 mg/L | 2
10 | CC(CCc1ccc(-c2ccc(NS(C)(=O)=O)cc2)c(F)c1)(C(=O)NO)S(C)(=O)=O (stereo not shown) [Example 209] | 2.04 |  |  | 32 mg/L |  | ≧64 mg/L | 8 mg/L | 8
11 | C[C@@](CCc1ccc(-c2ccc(NS(C)(=O)=O)cc2)cc1)(C(=O)NO)S(C)(=O)=O [Example 210] | 0.706 |  |  | 16 mg/L |  | ≧64 mg/L | 4 mg/L | 2
12 | C[C@@](CCc1ccc(-c2cnc3cc[nH]c3c2)cc1)(C(=O)NO)S(C)(=O)=O [Example 211] | 11.1 |  |  | ≧64 mg/L |  | ≧64 mg/L | ≧64 mg/L | 32
13 | COc1ccc(-c2ccc(CC[C@](C)(C(=O)NO)S(C)(=O)=O)cc2)cn1 [Example 212] | 0.237 |  |  | 16 mg/L |  | ≧64 mg/L | 4 mg/L | 1
14 | COc1ccc(-c2ccc(CCC(C)(C(=O)NO)S(C)(=O)=O)cc2F)cn1 (stereo not shown) [Example 213] | 0.518 |  |  | 8 mg/L |  | ≧64 mg/L | 2 mg/L | 2
15 | C[C@@](CCc1ccc(-c2ccc3c(c2)OCO3)cc1)(C(=O)NO)S(C)(=O)=O [Example 215] | 0.0842 |  |  | 2 mg/L |  | 16 mg/L | 0.5 mg/L | 0.5
16 | C[C@@](CCc1ccc(-c2ccc(C(=O)N3CCC[C@@H]3CO)cc2)cc1)(C(=O)NO)S(C)(=O)=O [Example 216] | 4.02 |  |  | ≧64 mg/L |  | ≧64 mg/L | 32 mg/L | 32
17 | CC(C)(O)C(=O)c1ccc(-c2ccc(CC[C@](C)(C(=O)NO)S(C)(=O)=O)cc2)cc1 [Example 217] | 0.278 |  |  | 4 mg/L |  | ≧64 mg/L | 0.5 mg/L | 4
